Reference: patent US11192860B2, “Co-crystal of an orally available HIF prolyl hydroxylase inhibitor” (Sandoz AG, priority 2017, dated 2021)

Legend:
[1] = TGA curves of WO 2014/014835 A2; cited from earlier work
[2] = FIGS. 4, 6 and 8 of WO 2014/014835 A2; cited from earlier work
[3] = Powder dissolution in phosphate buffer pH 6 at 25° C., concentration by HPLC; type: physicochemical; conditions: phosphate buffer pH 6, 25° C.
Description: Powder dissolution experiments were carried out in phosphate buffer pH 6 at 25° C. for form A of roxadustat and the L-proline co-crystal of the present invention. The respective concentrations were determined by HPLC at a wavelength of 254 nm.

[4] = Thermogravimetric analysis (mass loss on heating); type: physicochemical; conditions: 10 K/min
Description: The sample (16.28 mg) was heated in a 100 microliter aluminum pan closed with an aluminum lid. The lid was automatically pierced at the beginning of the measurement. The sample was heated from 25 to 250° C. at a rate of 10 K/min. Nitrogen (purge rate 50 mL/min) was used as purge gas.
For example mass losses of only about 0.1 weight % up to a temperature of about 180° C., about 0.2 weight % up to a temperature of about 190° C. and about 0.3 weight % up to a temperature of about 200° C. were observed, which further proves the presence of an anhydrous and non-solvated co-crystal.

[5] = Stability against mechanical stress (dry grinding, PXRD); type: physicochemical; conditions: dry ground 20 minutes, 25 vibrations per second
Description: A 1.5 mL grinding jar with one ball (5 mm diameter) both made of stainless steel was fed with about 70 mg sample and ground for 20 minutes at a frequency of 25 vibrations per second.

[6] = Stability against temperature and moisture (40° C., 75% RH, PXRD); type: physicochemical; conditions: 75% relative humidity, 7 days
[7] = Differential scanning calorimetry (thermal stability); type: physicochemical; conditions: 25 to 250° C. at 10 K/min
Description: The roxadustat L-proline co-crystal according to the present invention was investigated by DSC, which was performed on a Mettler Polymer DSC R instrument. The sample (2.72 mg) was heated in a 40 microliter aluminium pan with a pierced aluminium lid from 25 to 250° C. at a rate of 10 K/min. Nitrogen (purge rate 50 mL/min) was used as purge gas.

[8] = Stability against pressure (IR press, PXRD); type: physicochemical; conditions: pressed to a pellet at about 100 kN, ground again
Description: The pellet was ground again in order to obtain a powder, which was then investigated by PXRD.

## Cc1nc(C(=O)NCC(=O)O)c(O)c2ccc(Oc3ccccc3)cc12.Cc1nc(C(=O)NCC(=O)O)c(O)c2ccc(Oc3ccccc3)cc12.O [form B]
[1]
  solvent/water loss upon heating (TGA): readily lose their solvents/water upon heating
[2]
  phase transformation during DSC experiments: at least partially transform to form A

## Cc1nc(C(=O)NCC(=O)O)c(O)c2ccc(Oc3ccccc3)cc12 [roxadustat form A, [(4-hydroxy-1-methyl-7-phenoxyisoquinoline-3-carbonyl)amino]acetic acid, reference compound]
[3]; 1 min
  Concentration roxadustat (dissolution profile): 30 µg/mL
[3]; 5 min
  Concentration roxadustat (dissolution profile): 50 µg/mL
[3]; 15 min
  Concentration roxadustat (dissolution profile): 60 µg/mL
[3]; 30 min
  Concentration roxadustat (dissolution profile): 50 µg/mL
[3]; 60 min
  Concentration roxadustat (dissolution profile): 60 µg/mL
[3]; 180 min
  Concentration roxadustat (dissolution profile): 70 µg/mL

## Cc1nc(C(=O)NCC(=O)O)c(O)c2ccc(Oc3ccccc3)cc12 [roxadustat L-proline co-crystal]
[4]; up to about 180° C.
  TGA mass loss: about 0.1 weight %
[4]; up to about 190° C.
  TGA mass loss: about 0.2 weight %
[4]; up to about 200° C.
  TGA mass loss: about 0.3 weight %
[5]
  phase changes according to powder X-ray diffraction: no phase changes occured
[6]
  phase changes according to powder X-ray diffraction: no phase changes occurred
[7]
  thermal events in DSC until melting: neither phase changes nor desolvation events are detectable until the sample melts
[8]
  phase changes according to powder X-ray diffraction: no phase changes occured
[3]
  time after which the complex falls apart in aqueous solution into its pure components: about 5 minutes
[3]; 1 min, listed as roxadustat L-prolin co-crystal
  Concentration roxadustat (dissolution profile): 660 µg/mL
[3]; 5 min, listed as roxadustat L-prolin co-crystal
  Concentration roxadustat (dissolution profile): 30 µg/mL
[3]; 15 min, listed as roxadustat L-prolin co-crystal
  Concentration roxadustat (dissolution profile): 20 µg/mL
[3]; 30 min, listed as roxadustat L-prolin co-crystal
  Concentration roxadustat (dissolution profile): 40 µg/mL
[3]; 60 min, listed as roxadustat L-prolin co-crystal
  Concentration roxadustat (dissolution profile): 100 µg/mL
[3]; 180 min, listed as roxadustat L-prolin co-crystal
  Concentration roxadustat (dissolution profile): 90 µg/mL
